kcat, MIC and MBC data for five molecules are collected here from patent US10870102B2, “Radical generating catalyst, method for producing radical, method for producing oxidation reaction product, drug, and drug for agriculture and livestock” (ACENET INC., priority 2015, dated 2020).

“And” between values parts separate entries of the source, which are not always exact repeats. Equal values may be shown once. Read-outs that look alike come from different tables or passages of the source.

Assay [1] can be described thus: Lewis acidity: rate constant of reaction between CoTPP and oxygen in the presence of a Lewis acid. In kind it is physicochemical.
The next assay relates to Escherichia coli MV1184. Put plainly: MIC/MBC determination, microplate. In kind it is cell-based. Conditions: E. coli; 37° C., 24 hours.
The next assay has as its system Staphylococcus aureus. As to the kind of experiment: MIC/MBC determination, microplate. In kind it is cell-based. Conditions: S. aureus; 37° C., 24 hours.

Take benzalkonium chloride: in assay [1] (rate constant of reaction between CoTPP and oxygen in the presence of a Lewis acid, MeCN, saturated O2, room temperature), the kcat is on record as 0.18 M^−2 s^−1. Take `CC(C)(C)CC(C)(C)c1ccc(OCCOCC[N+](C)(C)Cc2ccccc2)cc1.[Cl-]` [benzetonium chloride, benzethonium chloride]: the kcat in assay [1] is 0.24 and 0.24 M^−2 s^−1. Still for that read-out and setting: as for `CCCC[N+](CCCC)(CCCC)CCCC.F[P-](F)(F)(F)(F)F` [tetrabutylammonium hexafluorophosphate], the figure is >0.1 M^−2 s^−1. Take sodium chlorite [Comp. Ex. 7]: in the assay with Escherichia coli MV1184, the MIC is reported as 25< ppm. As for sodium chlorite [compound 6], in the assay on Staphylococcus aureus, the MIC is given as 40 ppm. In the assay with Escherichia coli MV1184, this molecule gave an MBC of 50 ppm and an MIC of 30 ppm.
